Test results taken from the supplement of paper PMC10307832.

Key:
Experiment in all cases: relative viability (nuclei count vs DMSO), 5 days (fraction); higher = more cells survive
[1] = compound: C1=CC2=C(C=C(C(=C2N=C1)O)N=NC3=CC4=C(C=C3)C=C(C=C4)S(=O)(=O)O)S(=O)(=O)O + CC1(C)CCC(c2ccc(Cl)cc2)=C(CN2CCN(c3ccc(C(=O)NS(=O)(=O)c4ccc(N[C@H](CCN5CCOCC5)CSc5ccccc5)c(S(=O)(=O)C(F)(F)F)c4)cc3)CC2)C1 [Navitoclax] (partner 0.5 µM)
How it was run: (§1)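 One day after seeding in 1536-well plates, lung cancer cell lines were dosed by pin tool. Dosing was either single-drug or a fixed anchor-drug dose plus five library-drug doses (not always all listed) in √10 steps. After 5 days, nuclei were stained in one fix-and-stain step and counted on 4× images, and relative viability is the nuclei count of treated wells over that of vehicle wells, given as the median of duplicate plates.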

[2] = compound: C1=CC2=C(C=C(C(=C2N=C1)O)N=NC3=CC4=C(C=C3)C=C(C=C4)S(=O)(=O)O)S(=O)(=O)O + N=C(N)NC(=N)NCCc1ccccc1 [Phenformin] (partner 250 µM)
How it was run: as §1

AT-7519 + Luminespib = compound: O=C(NC1CCNCC1)c1n[nH]cc1NC(=O)c1c(Cl)cccc1Cl [AT-7519] + CCNC(=O)c1noc(-c2cc(C(C)C)c(O)cc2O)c1-c1ccc(CN2CCOCC2)cc1 [Luminespib] (partner 0.01 µM)
How it was run: as §1

AT-7519 + Alpelisib = compound: O=C(NC1CCNCC1)c1n[nH]cc1NC(=O)c1c(Cl)cccc1Cl [AT-7519] + Cc1nc(NC(=O)N2CCC[C@H]2C(N)=O)sc1-c1ccnc(C(C)(C)C(F)(F)F)c1 [Alpelisib] (partner 2 µM)
How it was run: as §1

| Cell Line | relative viability ([1]; first compound 0.08 µM) | relative viability ([1]; first compound 0.253 µM) | relative viability ([1]; first compound 0.8 µM) | relative viability ([1]; first compound 2.53 µM) | relative viability ([1]; first compound 8 µM) | relative viability ([2]; first compound 0.08 µM) | relative viability ([2]; first compound 0.253 µM) | relative viability ([2]; first compound 0.8 µM) | relative viability ([2]; first compound 2.53 µM) | relative viability ([2]; first compound 8 µM) | relative viability (AT-7519 + Luminespib; first compound 0.01 µM) | relative viability (AT-7519 + Luminespib; first compound 0.03162 µM) | relative viability (AT-7519 + Luminespib; first compound 0.3162 µM) | relative viability (AT-7519 + Luminespib; first compound 1 µM) | relative viability (AT-7519 + Alpelisib; first compound 0.01 µM) | relative viability (AT-7519 + Alpelisib; first compound 0.03162 µM) | relative viability (AT-7519 + Alpelisib; first compound 0.3162 µM) | relative viability (AT-7519 + Alpelisib; first compound 1 µM) |
| --- | --- | --- | --- | --- | --- | --- | --- | --- | --- | --- | --- | --- | --- | --- | --- | --- | --- | --- |
| NCI-H322M | 1.35 | 1.22 | 1.19 | 1.16 | 1.22 | 0.877 | 0.744 | 0.727 | 0.705 | 0.809 | 0.893 | 0.824 | 0.462 | 0.305 | 0.823 | 0.725 | 0.721 | 0.824 |
| NCI-H441 | 0.706 | 0.573 |  | 0.479 | 0.431 | 0.918 | 0.761 | 0.731 | 0.947 | 0.821 | 0.424 | 0.367 | 0.313 | 0.242 | 0.685 | 0.706 | 0.617 | 0.299 |
| NCI-H460 | 1.2 | 1.09 | 1.1 | 1.11 | 1.04 | 0.609 | 0.479 | 0.502 | 0.486 | 0.596 | 0.0297 | 0.0263 | 0.0291 | 0.0206 | 0.667 | 0.526 | 0.322 | 0.0207 |
| NCI-H520 | 1.17 | 0.99 | 1.07 | 1.07 | 1.13 | 0.493 | 0.496 | 0.585 | 0.321 | 0.727 | 0.233 | 0.239 | 0.263 | 0.209 | 0.81 | 0.847 | 0.884 | 0.478 |
| NCI-H596 | 0.946 | 0.973 | 1.06 | 0.964 | 1.01 | 0.749 | 0.735 | 0.697 | 0.841 | 0.759 | 0.988 | 1 | 0.846 | 0.827 | 0.485 | 0.548 | 0.191 | 0.41 |
| NCI-H647 | 1.19 | 0.955 | 0.938 | 1.24 | 1.23 | 0.668 | 0.486 | 0.449 | 0.534 | 0.525 | 0.209 | 0.244 | 0.148 | 0.0855 | 1.13 | 1.07 | 0.967 | 0.53 |
| NCI-H727 | 0.358 | 0.378 | 0.415 | 0.453 | 0.49 | 0.564 | 0.474 | 0.502 | 0.627 | 0.572 | 0.343 | 0.339 | 0.279 | 0.24 | 0.649 | 0.486 | 0.546 | 0.226 |
| NCI-H838 | 1.24 | 1.23 | 1.17 | 1.09 | 1.2 | 0.497 | 0.558 | 0.557 | 0.483 | 0.551 | 0.239 | 0.292 | 0.276 | 0.13 | 1.05 | 0.972 | 0.966 | 0.141 |
| NCI-H1355 | 1.03 | 0.944 | 0.913 | 1.03 | 0.96 | 0.484 | 0.432 | 0.44 | 0.481 | 0.434 | 0.87 | 0.621 | 0.564 | 0.578 | 0.813 | 0.805 | 0.884 | 0.547 |
| NCI-H1395 | 1.4 | 1.26 | 1.23 | 1.27 | 0.924 | 0.442 | 0.405 | 0.473 | 0.45 | 0.452 | 0.606 | 0.648 | 0.665 | 0.508 | 1.18 | 1.06 | 0.898 | 0.584 |
| NCI-H1437 | 1.08 | 1.08 | 1.11 | 1.16 | 1.08 | 0.257 | 0.242 | 0.251 | 0.303 | 0.317 | 1.17 | 1.2 | 1.09 | 0.745 | 1.05 | 0.931 | 0.816 | 0.477 |
| NCI-H1651 | 1.04 | 0.932 | 1.14 | 1.15 | 0.991 | 0.386 | 0.331 | 0.385 | 0.329 | 0.337 | 0.882 | 0.675 | 0.614 | 0.607 | 1.03 | 0.956 | 0.811 | 0.836 |
| NCI-H1666 | 0.87 | 0.91 | 0.962 | 1.14 | 0.842 | 0.536 | 0.579 | 0.586 | 0.596 | 0.566 | 1.06 | 0.943 | 0.988 | 0.585 | 0.846 | 1.01 | 0.864 | 0.326 |
| NCI-H1734 | 1.13 | 0.86 | 0.784 | 0.877 | 0.884 | 0.398 | 0.381 | 0.356 | 0.326 | 0.35 | 0.2 | 0.174 | 0.164 | 0.0866 | 0.645 | 0.655 | 0.613 | 0.434 |
| NCI-H1755 | 1.06 | 0.963 | 0.977 | 0.993 | 0.726 | 0.597 | 0.59 | 0.605 | 0.63 | 0.651 | 0.59 | 0.38 | 0.345 | 0.416 | 0.856 | 0.95 | 1.03 | 0.871 |
| NCI-H1792 | 0.712 | 0.578 | 0.598 | 0.623 | 0.632 | 0.261 | 0.343 | 0.254 |  | 0.295 |  | 0.453 | 0.359 | 0.613 | 0.324 | 0.536 | 0.767 | 0.51 |
| NCI-H1793 | 0.48 | 0.364 |  | 0.545 | 0.557 | 0.416 | 0.416 | 0.346 | 0.442 | 0.379 | 0.387 | 0.161 | 0.385 | 0.119 | 0.574 | 0.632 | 0.907 | 0.774 |
| NCI-H1915 | 0.818 | 0.764 | 0.835 | 0.765 | 0.768 | 0.368 | 0.381 | 0.352 | 0.357 | 0.37 | 0.687 | 0.798 | 0.729 | 0.62 | 1.06 | 1 | 1.04 | 0.732 |
